Measured values reported in article PMC6461439, “Enzyme activity and selectivity filter stability of ancient TRPM2 channels were simultaneously lost in early vertebrates” (eLife, 2019).

Key:
nvTRPM2 [1] = target: T1, nvTRPM2 (Nematostella vectensis, UniProt A7T1N0, E1443I/F1444L)
T1 construct: gene TRPM2

nvTRPM2 [2] = target: T2, nvTRPM2 (Nematostella vectensis, UniProt A7T1N0, E1446K/E1447K)
T2 construct: gene TRPM2
T2 sequence (A7T1N0 whole entry E1446K/E1447K): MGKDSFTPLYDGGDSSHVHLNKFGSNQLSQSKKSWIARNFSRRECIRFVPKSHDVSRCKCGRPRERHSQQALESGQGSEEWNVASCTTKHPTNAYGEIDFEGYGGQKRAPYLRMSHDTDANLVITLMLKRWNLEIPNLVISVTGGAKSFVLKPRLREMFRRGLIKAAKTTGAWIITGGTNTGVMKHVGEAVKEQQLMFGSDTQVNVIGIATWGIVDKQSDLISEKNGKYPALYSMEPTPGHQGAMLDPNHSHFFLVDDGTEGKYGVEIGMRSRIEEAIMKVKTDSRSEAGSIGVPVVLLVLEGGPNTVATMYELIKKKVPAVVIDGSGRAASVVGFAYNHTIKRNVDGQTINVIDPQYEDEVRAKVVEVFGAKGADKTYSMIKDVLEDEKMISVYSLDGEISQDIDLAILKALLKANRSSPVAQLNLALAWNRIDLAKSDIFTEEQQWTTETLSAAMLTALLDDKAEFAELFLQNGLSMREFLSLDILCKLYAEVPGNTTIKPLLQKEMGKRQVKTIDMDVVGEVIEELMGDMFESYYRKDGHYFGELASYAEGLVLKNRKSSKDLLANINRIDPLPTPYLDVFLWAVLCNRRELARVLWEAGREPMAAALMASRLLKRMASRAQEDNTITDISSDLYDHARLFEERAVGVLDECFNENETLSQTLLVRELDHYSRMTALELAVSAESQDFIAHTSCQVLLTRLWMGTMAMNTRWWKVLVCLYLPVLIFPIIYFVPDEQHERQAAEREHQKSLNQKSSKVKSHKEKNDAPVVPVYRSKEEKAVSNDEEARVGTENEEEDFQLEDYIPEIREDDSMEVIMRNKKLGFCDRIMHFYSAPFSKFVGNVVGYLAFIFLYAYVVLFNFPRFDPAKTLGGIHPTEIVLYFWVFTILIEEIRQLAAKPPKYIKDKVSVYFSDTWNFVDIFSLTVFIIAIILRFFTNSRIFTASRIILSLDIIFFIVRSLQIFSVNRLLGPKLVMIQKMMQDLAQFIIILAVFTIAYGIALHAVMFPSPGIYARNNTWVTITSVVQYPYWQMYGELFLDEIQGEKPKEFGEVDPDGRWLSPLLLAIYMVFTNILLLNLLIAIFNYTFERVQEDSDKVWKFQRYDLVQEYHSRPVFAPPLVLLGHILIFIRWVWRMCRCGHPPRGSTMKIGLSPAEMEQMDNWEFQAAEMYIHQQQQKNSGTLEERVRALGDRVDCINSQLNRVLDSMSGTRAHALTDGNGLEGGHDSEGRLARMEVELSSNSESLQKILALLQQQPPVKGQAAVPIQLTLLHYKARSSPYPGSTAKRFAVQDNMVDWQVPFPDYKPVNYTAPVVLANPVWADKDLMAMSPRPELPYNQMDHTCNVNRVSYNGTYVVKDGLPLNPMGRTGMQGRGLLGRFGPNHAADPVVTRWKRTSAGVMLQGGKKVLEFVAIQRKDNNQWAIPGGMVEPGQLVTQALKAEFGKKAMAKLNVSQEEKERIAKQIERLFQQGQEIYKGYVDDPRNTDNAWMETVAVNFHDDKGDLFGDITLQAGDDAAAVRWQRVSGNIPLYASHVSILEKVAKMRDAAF

T1 sequence (A7T1N0 whole entry E1443I/F1444L): as the sequence (A7T1N0 whole entry E1446K/E1447K) above, with E1443I, F1444L, K1446E, K1447E counted along it

Which results are given for Nc1ncnc2c1ncn2[C@@H]1O[C@H](COP(=O)(O)OP(=O)(O)OC[C@H]2OC(O)[C@H](O)[C@@H]2O)[C@@H](O)[C@H]1O (some centres unmarked) [ADPR]?
EC50 (nvTRPM2 [1]): ~2000 nM; EC50 (nvTRPM2 [2]): ~2000 nM
